The assay concerns α7 integrin promoter. Kind of assay: muscle cell-based assay: α7βgal+/− myoblasts/myotubes, LacZ reporter, β-galactosidase cleavage of FDG. Details: species or system mouse. The following applies: for AC50: Mus musculus, read-out: Fit Log AC50 (converted); for AC50 / Fit HillSlope / Fit Zero Activity [%] / Fit Curve Class / Fit Infinite Activity [%] / Fit Log AC50: Table 12; for AC50 / Fit Log AC50: log of AC50, given with negative sign, unit of AC50 not given; for Fit HillSlope: curve fit; for Fit Zero Activity [%]: fitted activity at zero concentration; for Fit Curve Class: key not given; for Score: Table 12 Compound data, concentration-response curve fit; for Fit Infinite Activity [%]: fitted activity at infinite concentration. How it is done:
An α7 integrin null mouse was produced in which exon 1 of the gene encoding the α7 integrin was replaced by the LacZ reporter. In these mice, all the transcriptional regulatory elements of the α7 integrin promoter were retained, allowing β-galactosidase to report expression of 7 integrin. A primary myoblast cell line (designated α7βgal^+/−) isolated from 10 day old α7^+/− pups were analyzed for the ability of β-galactosidase to report α7 integrin expression. α7βgal^+/− myoblasts were differentiated and subjected to X-gal staining and western analysis (FIGS. 1A and 1B).
The activity of the α7 integrin promoter was measured by β-galactosidase cleavage of the non-fluorescent compound fluorescein di-β-D-galactopyranoside (FDG) to fluorescein. This assay was used to screen compound libraries to identify molecules that up-regulate α7 integrin expression in muscle.
Also evaluated was the effect of various isoforms of laminin and the ligand for α7β1 integrin on integrin expression. Positive hits were subjected to dose-response analysis, western analysis and a myostatin counterscreen (a negative regulator of muscle growth).

Results on 23 compounds are retold here after patent US10028992B2, “Methods of treating muscular dystrophy” (BOARD OF REGENTS OF THE NEVADA SYSTEM OF HIGHER EDUCATION …, priority 2012, dated 2018).

SMILES strings stand for the structures.

As a reminder, the AC50 is the concentration at which the activity in the assay is half-maximal. Turning to `COc1ccc(N(CC(=O)NCCC(C)C)C(=O)c2snc(C(=O)NC3CCCCC3)c2N)c(OC)c1` [Compound 98], the half-maximal activity concentration (AC50) was 10 µM, the “Fit HillSlope” value stood at 4.5045, the “Fit Zero Activity [%]” value is on record as −0.0479% and the “Fit Curve Class” value is 2.1. The Score was determined as 43.
Taken in the same sequence, the figures for `CC1(C)CC(O)=C/C(=N\c2ccc(C(=O)O)c(O)c2)C1` [Compound 99] were 10 µM, 2.1211, 0%, 2.1 and 43.
On the same counts, the results for `COC(=O)c1ccccc1NC(=O)c1cc[n+]([O-])cc1` [Compound 100] are 3.98 µM, 1.01, −31.5116%, 2.1 and 43.
Consider `CN(C)C1(C/N=C/c2cc(Cl)cc([N+](=O)[O-])c2O)CCCCC1` [Compound 101], for which the “Fit HillSlope” value was 1.6604, the “Fit Infinite Activity [%]” value was 115.659%, the “Fit Zero Activity [%]” value is recorded as −15.8708% and the “Fit Curve Class” value is given as 2.1. The “Fit Log AC50” value was −5.05 and the Score is on record as 43.
Consider `CS(=O)(=O)Cc1cccc(C(=O)NN(c2ccccc2)c2ccccc2)c1` [Compound 102], for which the AC50 was 12.6 µM, the “Fit HillSlope” value was found to be 4.5045, the “Fit Zero Activity [%]” value stood at 10.4042% and the “Fit Curve Class” value was determined as 2.1. Moreover, the Score stood at 43.
As to `COc1ccccc1CNS(=O)(=O)c1ccc(Cl)s1` [Compound 103], the AC50 is 6.31 µM, the “Fit HillSlope” value is 1.8265, the “Fit Zero Activity [%]” value is −23.0045% and the “Fit Curve Class” value worked out at 2.1. The compound also had a Score of 43.
As for `O=C(NCCc1ccccc1)C1CCC(=O)N1C1CCCC1` (stereo not drawn) [Compound 104], the AC50 is 10 µM, the “Fit HillSlope” value worked out at 3.6772, the “Fit Zero Activity [%]” value was −9.1182% and the “Fit Curve Class” value is 2.1. The same compound displayed a Score of 43.
Consider `NS(=O)(=O)c1ccc(NC(=O)c2cc(-c3ccccc3O)[nH]n2)cc1` [Compound 105], for which the AC50 is 10 µM, the “Fit HillSlope” value is given as 3.5117, the “Fit Zero Activity [%]” value was 16.8467% and the “Fit Curve Class” value turned out to be 2.1. In addition, the Score worked out at 43.
For `Fc1ccc(-c2ccnn2-c2ccccc2)cc1` [Compound 107], the AC50 was 4.47 µM, the “Fit HillSlope” value is recorded as 1.4781, the “Fit Zero Activity [%]” value is on record as −19.2206% and the “Fit Curve Class” value was determined as 2.1. The same compound had a Score of 43.
Taken in the same sequence, the figures for `O=C(Nc1cc(Br)ccc1O)C1CC(c2ccccc2Cl)=NO1` (stereo not drawn) [Compound 108] were 12.6 µM, 4.5045, 2.0834%, 2.1 and 43.
On the same counts, the results for `COc1ccc2oc(C[S+]([O-])c3ccccc3)c(C(=O)O)c2c1` (stereo not drawn) [Compound 109] are 12.6 µM, 4.9549, 7.5839%, 2.1 and 43.
In the case of `CCCCS(=O)(=O)N1CCCC(C(=O)NCCc2ccccc2)C1` (stereo not drawn) [Compound 111], the AC50 was 7.08 µM, the “Fit HillSlope” value stood at 1.21, the “Fit Zero Activity [%]” value amounted to 2.2101% and the “Fit Curve Class” value is on record as 2.1. In addition, the Score was found to be 43.
Consider `O=[N+]([O-])c1ccc(Cl)cc1N/N=C/c1ccncc1` [Compound 112], for which the “Fit HillSlope” value worked out at 3.132, the “Fit Infinite Activity [%]” value turned out to be 74.0416%, the “Fit Zero Activity [%]” value was found to be 0.1229% and the “Fit Curve Class” value is reported as 2.2. For the same compound, the “Fit Log AC50” value was −5.25 and the Score is 43.
Turning to `NC(=O)c1cccnc1Oc1ccc(Cl)cc1Cl` [Compound 113], the AC50 was 10 µM, the “Fit HillSlope” value was 3.9295, the “Fit Zero Activity [%]” value is on record as −5.8907% and the “Fit Curve Class” value turned out to be 2.1. This compound also registered a Score of 43.
On the same counts, the results for `Cc1ccc(NC(=O)C2CCCCC2C(=O)O)cc1C` (stereo not drawn) [Compound 114] are 11.2 µM, 4.5045, −3.8223%, 2.1 and 43.
Consider `CCOc1ccc2oc(C(=O)OCC(=O)NC(=O)NC)c(C)c2c1` [Compound 115], for which the AC50 is 7.08 µM, the “Fit HillSlope” value was found to be 1.8265, the “Fit Zero Activity [%]” value is reported as −4.8829% and the “Fit Curve Class” value was 2.2. In addition, the Score worked out at 43.
Consider `CN(C)S(=O)(=O)c1ccc(C(=O)Nc2nc3ccccc3[nH]2)cc1` [Compound 116], for which the AC50 was 8.91 µM, the “Fit HillSlope” value is listed as 1.5579, the “Fit Zero Activity [%]” value is −9.8246% and the “Fit Curve Class” value is listed as 2.1. Moreover, the Score was found to be 43.
For the compound `NC1=Nc2cccc3cccc1c23` [Compound 117], the AC50 was 7.94 µM, the “Fit HillSlope” value amounted to 1.6604, the “Fit Zero Activity [%]” value is recorded as −0.2202% and the “Fit Curve Class” value came out at 2.1. This compound had a Score of 43.
`C/N=c1\scc(-c2ccc(OC)cc2)n1/N=C(\C)c1cccnc1` [Compound 118]: the half-maximal activity concentration (AC50) was 5.01 µM, the “Fit HillSlope” value turned out to be 1.6924, the “Fit Zero Activity [%]” value is on record as −7.9176% and the “Fit Curve Class” value came to 2.2. For the same compound, the Score came out at 43.
On the same counts, the results for `O=C(COC(=O)Cn1cnc2ccccc21)Nc1cccc([N+](=O)[O-])c1` [Compound 119] are 11.2 µM, 4.9549, −16.0213%, 2.1 and 43.
On to `Cc1ccc(CNc2ncnc(N)c2[N+](=O)[O-])cc1` [Compound 120], for which the AC50 is 10 µM, the “Fit HillSlope” value is listed as 0.8, the “Fit Zero Activity [%]” value is on record as 11.933% and the “Fit Curve Class” value is on record as 2.1. Further, the Score is on record as 43.
On the same counts, the results for `CN(C)/C=N/c1nccc(-c2cccs2)n1` [Compound 121] are 8.91 µM, 1.8851, 5.7133%, 2.1 and 43.
On the same counts, the results for `Cc1cc(N2CCOCC2)nc2ccc(N/C(S)=N/Cc3ccc4c(c3)OCO4)cc12` [Compound 122] are 10 µM, 1.2475, 0.5248%, 2.1 and 43.
